Experiment [1] deals with T1, human glucocorticoid receptor (GR) complex (Homo sapiens, UniProt P04150).
T1 construct: made in house; host or cells: insect expression system (baculovirus lysate)
T1 sequence (P04150 1-777): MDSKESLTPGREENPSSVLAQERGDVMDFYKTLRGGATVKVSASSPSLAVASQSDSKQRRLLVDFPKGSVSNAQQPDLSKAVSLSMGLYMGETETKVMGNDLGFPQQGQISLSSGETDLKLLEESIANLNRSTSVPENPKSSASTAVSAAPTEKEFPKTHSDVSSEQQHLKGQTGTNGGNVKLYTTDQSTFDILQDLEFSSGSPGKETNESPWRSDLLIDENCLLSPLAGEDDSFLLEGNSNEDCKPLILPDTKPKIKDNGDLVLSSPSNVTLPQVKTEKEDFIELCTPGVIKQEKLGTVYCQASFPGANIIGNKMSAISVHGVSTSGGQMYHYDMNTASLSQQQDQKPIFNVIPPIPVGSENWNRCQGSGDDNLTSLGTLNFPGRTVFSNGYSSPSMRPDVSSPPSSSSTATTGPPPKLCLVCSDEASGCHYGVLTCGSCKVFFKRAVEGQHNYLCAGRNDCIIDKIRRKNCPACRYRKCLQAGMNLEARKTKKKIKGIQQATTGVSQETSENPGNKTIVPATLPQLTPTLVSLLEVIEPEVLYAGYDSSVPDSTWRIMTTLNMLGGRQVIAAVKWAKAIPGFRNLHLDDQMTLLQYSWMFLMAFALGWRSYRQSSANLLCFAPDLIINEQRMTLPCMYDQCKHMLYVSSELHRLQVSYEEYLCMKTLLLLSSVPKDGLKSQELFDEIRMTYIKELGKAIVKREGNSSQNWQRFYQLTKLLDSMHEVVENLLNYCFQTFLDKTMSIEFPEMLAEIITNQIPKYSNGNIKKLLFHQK
As to the kind of experiment: Glucocorticoid Receptor Competitive Binding Assay (fluorescence polarization, TAMRA-labeled dexamethasone probe). Conditions: qualitative statement; competition with TAMRA-labeled dexamethasone. The essentials:
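Competition with TAMRA-dexamethasone for a human GR complex expressed in insect cells, read by fluorescence polarization. Buffer was 10 mM TES, 50 mM KCl, 20 mM Na2MoO4, 1.5 mM EDTA, 0.04% CHAPS, 10% glycerol, 1 mM DTT, pH 7.4.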

The test system of a further experiment is glucocorticoid receptor. Kind of experiment: Glucocorticoid Receptor Cell Assays (agonist activity in one or more of the above assays). Format: cell-based. The conditions noted are these: qualitative statement; assay not specified.

With `Cc1cccc2[nH]c(CC(O)(CC(C)(C)c3cc(F)ccc3O)C(F)(F)F)cc12` (stereo not drawn) [4-Fluoro-2-[4,4,4-trifluoro-3-hydroxy-1,1-dimethyl-3-(4-methyl-1H-indol-2-ylmethyl)butyl]phenol], the “activity in the GR binding assay” value in experiment [1] was “potent activity”. Also, the “activity as agonists of the glucocorticoid receptor function in one or more of the above assays” value (shortened to “activity as agonists”) in the experiment with glucocorticoid receptor is “potent agonists”.
Regarding `CC(C)(CC(O)(Cc1ccnc2ccccc12)C(F)(F)F)c1ccc(F)cc1O` (stereo not drawn) [5-Fluoro-2-(4,4,4-trifluoro-3-hydroxy-1,1-dimethyl-3-quinolin-4-ylmethylbutyl)phenol], the “activity in the GR binding assay” value in experiment [1] is recorded as “potent activity”. Moreover, the “activity as agonists” value with glucocorticoid receptor was “potent agonists”.
Turning to `CC(C)(CC(O)(Cc1cc2ccncc2[nH]1)C(F)(F)F)c1ccc(F)cc1O` (stereo not drawn) [5-Fluoro-2-[4,4,4-trifluoro-3-hydroxy-1,1-dimethyl-3-(1H-pyrrolo[2,3-c]pyridin-2-ylmethyl)butyl]phenol], the “activity in the GR binding assay” value in experiment [1] is “potent activity”. For the same compound, the “activity as agonists” value with glucocorticoid receptor is “potent agonists”.

Source of the values: US7553966B2, “Glucocorticoid mimetics, methods of making them, pharmaceutical compositions, and uses thereof” (Boehringer Ingelheim Pharmaceuticals, Inc., priority 2002, dated 2009).
